Measured values taken from patent US20040132700A1, “Use of fluticasone propionate in the treatment of diseases ameliorated by enhancement of epithelial madrix adhesion such as asthma cystic fibrosis and influenza” (priority 2001, published 2004).

Columns and labels:
Assay type in all cases: cell-based
16HBe14o- cells [1] = experiment: human sputum elastase (HSE) induced hole formation and loss of TER in 16HBe14o- monolayers
Method: (§1) 16HBe14o- cells were grown on transwell clear membranes until they formed an electrically tight monolayer. In the absence of serum, the cells were treated for 24 hours with FP or vehicle. 5 μg/ml human sputum elastase (HSE) or 5 μg/ml Pseudomonas Aeruginosa elastase (PAE) was then added to the basolateral surface of the cells. The transepithelial resistance (TER) and the morphology of the monolayers were monitored over the next 24 hours.
(§2) When HSE was added to the basal surface of the both the 16HBE14o- and primary bronchial epithelial cells it caused a lowering of TER and formation of holes in the cell monolayers. […] When the cells were treated with PAE, the monolayer detached from the underlying membrane as a complete sheet. It took 4 hours for all of the control cultures treated with PAE to become detached whereas it took 8 hours for all of the FP pretreated cultures to become detached.

[2] = system: human primary bronchial epithelial cells; experiment: human sputum elastase (HSE) induced hole formation and loss of TER in primary bronchial epithelial cells
Method: as §1, §2

16HBe14o- cells [3] = experiment: Pseudomonas aeruginosa elastase (PAE) induced detachment and loss of TER of 16HBe14o- monolayers
Method: as §1, §2

16HBE epithelial cells = experiment: mechanical wounding of confluent 16HBE epithelial cultures, wound area; settings: 16HBE cultures, various steroid concentrations for 24 h or 48 h before wounding (FIG. 7), versus control cultures
Method: To study the effect of FP on protection from mechanical damage, multiple concentric wounds were generated in multiwell plates, thus achieving a large total wound length for analysis. 10^4 cells in 0.2 ml of growth medium containing 5% steroid-free FCS were added to wells in 96 well plates and cultured until confluent with regular changes of growth medium. Cultures were incubated for a further 24 h or 48 h before wounding. After wounding, cultures were rinsed in PBS, fixed at room temperature in methanol/acetone (50/50), air dried and then stained with 0.1% crystal violet. Wound areas were determined using a Leica Q550IW image analysis system. […] The steroid effects were obvious at 24 h, but even more marked at 48 h. At the latter time point, control wound size had increased, whilst the highest dose of either steroid had reduced wound size, compared to wounds after 24 h exposure. […] In the control cultures, tearing of the epithelium from the dish surface beyond the area of direct contact with the needle occurs producing a wound width that is much greater than the needle width. In contrast, in steroid treated cultures, wounds become progressively smaller with increasing steroid concentration until the damage area is limited to the epithelium that has had direct contact with the needle.

Compound: CCC(=O)O[C@]1(C(=O)SCF)[C@H](C)C[C@H]2[C@@H]3C[C@H](F)C4=CC(=O)C=C[C@]4(C)[C@@]3(F)[C@@H](O)C[C@@]21C [FP, S-fluoromethyl 6α, 9β-difluoro-11β-hydroxy-16α-methyl-17α-propionyloxy-3-oxoandrosta-1,4-diene-17β-carbothiate]
- rate of hole formation in cell monolayer (16HBe14o- cells [1]; 16HBE14o- cells, 24 h FP pretreatment, 5 μg/ml HSE basolateral, monitored over 24 hours): reduction in the rate of hole formation
- loss of TER induced by HSE (16HBe14o- cells [1]; 16HBe14o- cells, after 24 hour incubation with HSE (FIG. 2)): protective effect
- loss of TER induced by human sputum elastase ([2]; primary bronchial epithelial cells (FIG. 3)): protective effect
- rate of hole formation in cell monolayer ([2]; primary bronchial epithelial cells, FP pretreatment, HSE added to basal surface): reduction in the rate of hole formation
- loss of TER induced by pseudomonas elastase (16HBe14o- cells [3]; 16HBe14o- cells (FIG. 5)): protective effect
- time for all cultures to become detached from the underlying membrane (16HBe14o- cells [3]; 16HBe14o- cells, 24 h FP pretreatment, 5 μg/ml PAE basolateral, control cultures 4 hours): 8 h
- wound size (wound area) (16HBE epithelial cells): dose-related decrease in wound size
